Ends that are not written are not given here.
How the values were obtained:
PKC = settings: literature value, Kuo, J. F. (1994); read-out: Previously Reported IC50; cited from earlier work
[1] = tested on: PKC purified from rat brain; experiment: IQ Platform PKC/PS inhibitor study (fluorescence quench kinase assay); format: biochemical; settings: Hill slope of the dose response inhibition curve
Experimental: IQ™ Working Solution was prepared by mixing 9 volumes of IQ™ Reagent A and 1 volume of IQ™ Reagent B prior to use to provide full strength IQ™ WS (1×IQ™ WS). The full-strength working solution was further diluted with water to prepare half-strength or quarter-strength IQ™ working solution. In 96 well assays, 4× reaction volume of quarter-strength was added and in 384 and 1536 well assays, 2× reaction volume of half-strength was added.
Enzymatic assays were conducted at room temperature for 1 hour unless otherwise indicated. Reactions were carried out in microwell plates and initiated by addition of ATP or enzyme. Kinase experiments used PKC purified from rat brain. PKC assays were conducted in a final enzyme reaction mixture consisting of 20 mM HEPES, 1 mM CaCl2, 5 mM MgCl2, 1 mM disodium ATP, 1 mM DTT, 0.2 mg/ml phosphatidyl-L-serine, pH 7.4. […] The amounts of enzyme utilized reflect a common unit definition where 1 mU of enzyme is the amount of enzyme required to transfer 1 pmole phosphate per minute at 30° C.
Peptides were labeled on the N-terminus with a proprietary red fluorescent label. Fluorescence was measured using either a BMG PolarStar™ or BMG Optima™ fluorescent plates readers with a 560/590 excitation/emission filter set for the red-fluorophore label.
Inhibitor studies using the IQ Platform with PKC/PS: IC50 values for known PKC inhibitors were determined using fluorophore-labeled pseudosubstrate peptide as the substrate. Inhibitor studies were carried out in triplicate using 500 μU PKC per μl of final enzyme reaction mixture and 60 μM peptide substrate. Inhibitors, diluted in either aqueous solution for water-soluble inhibitors or in 10% DMSO for water-insoluble inhibitors, were incubated with the enzyme for 20 minutes at room temperature, after which the enzymatic reaction was initiated by addition of ATP at a final concentration of 20 μM. The enzymatic reaction was carried out for 1 hour at room temperature followed by addition of 36 μl of 0.5×IQ WS per well. Fluorescence was then measured and data were analyzed using sigmoidal nonlinear regression.

Row | Molecule | IC50 (PKC) [µM] | Calculated Hillslope Best Fit [1]
1 | CN(C)CCCn1cc(C2=C(c3c[nH]c4ccccc34)C(=O)NC2=O)c2ccccc21 [Bisindolylmaleimide I] | 0.01 | 1.160
2 | CN[C@@H]1C[C@H]2O[C@@](C)([C@@H]1OC)n1c3ccccc3c3c4c(c5c6ccccc6n2c5c31)C(=O)NC4 [Staurosporine] | […] | 1.225
3 | Calphostin C | 0.05 | 1.675
4 | Myristoylated Protein Kinase C Inhibitor 20-28, Cell-Permeable: known PKC inhibitor peptide; competitive, peptide binding site (FARKGALRQ; also: myristoylated (place not given here); UniProt P17252 20-28, looked up, fragment) | 8 | 0.9018
5 | Pseudosubstrate PKC Inhibitor Peptide 19-31: known PKC inhibitor peptide; competitive, peptide binding site (RFARKGALRQKNV; UniProt P17252 19-31, looked up, fragment) | 0.1 | 0.8462
6 | Pseudosubstrate PKC Inhibitor Peptide 19-36: known PKC inhibitor peptide; competitive, peptide binding site (RFARKGALRQKNVHEVKD; UniProt P17252 19-36, looked up, fragment) | 0.147 | 1.265

Reference: patent publication US20050032121A1, “Method of analyzing data obtained from a biological assay” (Pierce Biotechnology, Inc., priority 2003, published 2005)
